Measured values reported in article PMC3758303 (PLoS ONE, 2013).

Legend:
[1] = test system: subgenomic HCV-JFH-1 replicon in RSc-JRN/35B cells; test: RSc-JRN/35B RL assay; format: cell-based, hepatitis C virus
Description: RSc and D7 cells were derived from the cell lines HuH-7 and Li23, respectively, were cultured as described previously, [29]. HuH-7-derived OR6 [13], AH1R [30], and 1B-4R [Ikeda et al., submitted] cells harboring genome-length HCV-RNA and HuH-7-derived polyclonal sOR [31], and RSc-JRN/35B [Ikeda et al., submitted] cells harboring an HCV subgenomic replicon were cultured with medium in the presence of G418 (0.3 mg/ml; Geneticin, Invitrogen, Carlsbad, CA) as described previously. Li23-derived ORL8 [20], ORL11 [20], 1B-4RL [Ikeda et al., submitted], and KAH5RL [Ikeda et al., submitted] cells harboring genome-length HCV-RNA were maintained with medium in the presence of G418 (0.3 mg/ml) as described previously. Li23-derived polyclonal sORL8 and sORL11 cells harboring an HCV replicon, which were established by the transfection of ORN/3-5B/QR,KE,SR RNA into the cured OL8 and OL11 cells, respectively, were also cultured with medium in the presence of G418 (0.3 mg/ml) as described previously. […]
We next examined whether N-89 and N-251 worked in an HCV production system using HCV-JFH-1 strain (genotype 2a). […] To clarify whether anti-HCV activity depends on the difference of genotype or assay model, we evaluated the activities of N-89 and N-251 using RSc-JRN/35B [Ikeda et al., submitted] cells harboring a subgenomic HCV-JFH-1 replicon as an additional assay.

[2] = test system: genome-length HCV-RNA (AH1 strain of genotype 1b) replication in HuH-7-derived AH1R cells; test: AH1R RL assay; format: cell-based; settings: Hepatitis C virus, HuH-7, HCV strain AH1, 72 hrs
Description: (§1) RSc and D7 cells were derived from the cell lines HuH-7 and Li23, respectively, were cultured as described previously, [29]. HuH-7-derived OR6 [13], AH1R [30], and 1B-4R [Ikeda et al., submitted] cells harboring genome-length HCV-RNA and HuH-7-derived polyclonal sOR [31], and RSc-JRN/35B [Ikeda et al., submitted] cells harboring an HCV subgenomic replicon were cultured with medium in the presence of G418 (0.3 mg/ml; Geneticin, Invitrogen, Carlsbad, CA) as described previously. Li23-derived ORL8 [20], ORL11 [20], 1B-4RL [Ikeda et al., submitted], and KAH5RL [Ikeda et al., submitted] cells harboring genome-length HCV-RNA were maintained with medium in the presence of G418 (0.3 mg/ml) as described previously. Li23-derived polyclonal sORL8 and sORL11 cells harboring an HCV replicon, which were established by the transfection of ORN/3-5B/QR,KE,SR RNA into the cured OL8 and OL11 cells, respectively, were also cultured with medium in the presence of G418 (0.3 mg/ml) as described previously. Cured cells, from which the HCV-RNA had been eliminated by IFN treatment, were also maintained with medium in the absence of G418 as described previously. […] Therefore, when HCV-RNA is excluded from the cells or when its level is decreased, the cells are killed in the presence of G418. […]
(§2) The SI value of each reagent was determined by dividing the CC50 value by the EC50 value.

[3] = WST-1 cell proliferation assay, 1B-4R cells; format: cell-based; settings: human
Description: (§3) The WST-1 cell proliferation assay was performed as described previously. Briefly, The cells were plated onto 96-well plates (1×10^3 cells per well) in triplicate and then treated with each reagent at several concentrations for 72 hrs. After treatment, the cells were subjected to the WST-1 cell proliferation assay (Takara Bio, Otsu, Japan) according to the manufacturer’s protocol. This assay is based on the enzymatic cleavage of the tetrazolium salt WST-1 to formazan by cellular mitochondrial dehydrogenases present in viable cells. Therefore, there are […] the value of the WST-1 assay becomes zero. The experiments were performed at least in triplicate. From the assay results, the 50% cytotoxic concentration (CC50) of each reagent was determined.

[4] = test system: genome-length HCV-RNA (O strain of genotype 1b) replication in Li23-derived ORL8 cells; test: ORL8 RL assay; format: cell-based, hepatitis C virus; settings: for EC50: Hepatitis C virus, Li23, HCV strain O, 72 hrs, RL assay
Description: RSc and D7 cells were derived from the cell lines HuH-7 and Li23, respectively, were cultured as described previously, [29]. HuH-7-derived OR6 [13], AH1R [30], and 1B-4R [Ikeda et al., submitted] cells harboring genome-length HCV-RNA and HuH-7-derived polyclonal sOR [31], and RSc-JRN/35B [Ikeda et al., submitted] cells harboring an HCV subgenomic replicon were cultured with medium in the presence of G418 (0.3 mg/ml; Geneticin, Invitrogen, Carlsbad, CA) as described previously. Li23-derived ORL8 [20], ORL11 [20], 1B-4RL [Ikeda et al., submitted], and KAH5RL [Ikeda et al., submitted] cells harboring genome-length HCV-RNA were maintained with medium in the presence of G418 (0.3 mg/ml) as described previously. Li23-derived polyclonal sORL8 and sORL11 cells harboring an HCV replicon, which were established by the transfection of ORN/3-5B/QR,KE,SR RNA into the cured OL8 and OL11 cells, respectively, were also cultured with medium in the presence of G418 (0.3 mg/ml) as described previously. […] Therefore, when HCV-RNA is excluded from the cells or when its level is decreased, the cells are killed in the presence of G418.
RL assay was performed as described previously, [24]. Briefly, the cells were plated onto 24-well plates (2×10^4 cells per well) in triplicate and then treated with each reagent at several concentrations for 72 hrs. After treatment, the cells were subjected to luciferase assay using the RL assay system (Promega, Madison, WI). The experiments were performed at least in triplicate. From the assay results, the 50% effective concentration (EC50) of each reagent was determined.
as §2

[5] = WST-1 cell proliferation assay, OR6 cells; format: cell-based; settings: human
Description: as §3

[6] = test system: genome-length HCV-RNA (1B-4 strain of genotype 1b) replication in Li23-derived 1B-4RL cells; test: 1B-4RL RL assay; format: cell-based; settings: Hepatitis C virus, 1B-4RL assay, Li23, HCV strain 1B-4, 72 hrs
Description: as §1, §2

[7] = WST-1 cell proliferation assay, KAH5RL cells; format: cell-based; settings: human
Description: as §3

[8] = test system: HCV-RNA replication in ORL8 cells; test: Effect of VE on anti-HCV activity, ORL8 RL assay; format: cell-based, hepatitis C virus; settings: 72 hrs
Description: After treatment, an RL assay of harvested ORL8 cell samples was performed. (B, D, and F) The ratio of RL activity in the presence of VE to the RL activity in the absence of VE. The above ratio was calculated from the data of (A, C, and E). […] (G) Western blot analysis was performed as described in Fig. 1B.
The ORL8 cells were treated with N-89 or IFN-α, and then RL assays were performed at 2 to 72 hrs after the treatment. The relative value (%) calculated at each time point, when the luciferase activity of non-treated cells at 24 hrs was assigned as 100%, is shown. Data are expressed as the means±standard deviation of triplicate assays. […] To evaluate this possibility, we examined the effect of VE on N-89 at the EC90 level in the ORL8 assay.

Compound	anti-HCV activity, subgenomic HCV-JFH-1 replicon [1]	EC50 [2] [nM]	CC50 at 72 h [3] [nM]	anti-HCV activity (suppression) ([4]; 1 µM in ORL8 cells, without a decrease in cell viability) [%]	EC50 ([4]; ORL8 assay) [nM]	EC99 value ([4]; ORL8 assay) [µM]	CC50 at 72 h [5] [nM]	EC50 [6] [nM]	CC50 at 72 h [7] [nM]	VE 10μM(+) / VE 10μM(-) ratio of RL activity ([8]; reagent at expected EC90, Fig. 5B (control 3.0))	VE 10μM(+) / VE 10μM(-) ratio of RL activity ([8]; reagent at expected EC90, Fig. 5D (control 2.3))
C1CCCCCC2(CCCCC1)OOCCCOO2 [N-89, 1,2,6,7-Tetraoxaspiro[7.11]nonadecane]	did not show any anti-HCV activities	25	9300	> 99	89	1	9000	120	2500	16	
OCCCCCCC1COOC2(CCCCCCCCCCC2)OOC1 [N-251, 6-(1,2,6,7-tetraoxaspiro[7.11]nonadec-4-yl)hexan-1-ol]	did not show any anti-HCV activities	140	3800		100		3000	230	2800		13
